Here are results for 39 substances from US20050181376A1, “Antisense modulation of microsomal triglyceride transfer protein expression” (ISIS Pharmaceuticals, Inc., priority 2001, published 2005).

Strand notation (5' to 3'): a small letter for the sugar, then the base; units joined by * are phosphorothioate-linked, units joined directly phosphodiester-linked; [ ] holds rarer units or linkages, { } end groups; capitals alone tell only the bases. e = 2'-O-(2-methoxyethyl) (MOE); [5mC] = 5-methylcytosine; d = 2'-deoxy (DNA)

For this series, the system named is human microsomal triglyceride transfer protein mRNA. Put plainly: Antisense inhibition of human microsomal triglyceride transfer protein mRNA levels, quantitative real-time PCR. Note: test concentration or dose not given here. The conditions noted are these: averages from two experiments. Background: Quantitative PCR measures a nucleic acid by following its amplification.
Turning to “144426 (eG*eA*eG*e[5mC]*eA*dG*dT*dG*dG*dT*dA*dG*d[5mC]*d[5mC]*dA*eG*eG*eT*eG*eG; antisense) [compound 144426]”, the “% INHIB (inhibition of human microsomal triglyceride transfer protein mRNA levels)” value (“% INHIB” for short) was found to be 22%.

“144427 (eT*eA*eA*eG*eG*dT*d[5mC]*dT*dT*d[5mC]*dT*dT*d[5mC]*dA*d[5mC]*e[5mC]*eT*e[5mC]*eA*eT; antisense) [compound 144427]”: the “% INHIB” value is on record as 8%.

For the substance “144428 (eG*e[5mC]*eA*eG*e[5mC]*dT*dG*d[5mC]*dA*dG*d[5mC]*dA*dG*dT*dG*e[5mC]*eG*e[5mC]*eA*e[5mC]; antisense) [compound 144428]”, the “% INHIB” value is reported as 19%.

With “144429 (e[5mC]*eT*eT*eG*eA*d[5mC]*dG*dT*d[5mC]*d[5mC]*dA*dT*dG*dT*dA*eG*eG*eA*eT*eG; antisense) [compound 144429]”, the “% INHIB” value is 0%.

Turning to “144430 (e[5mC]*eT*eA*eT*eG*dT*dA*dG*d[5mC]*d[5mC]*dA*dG*dT*dG*dT*eA*eG*eG*e[5mC]*eA; antisense) [compound 144430]”, the “% INHIB” value was 0%.

On to “144431 (e[5mC]*eG*eA*eG*eT*dA*dG*dA*dG*dA*dA*dT*dG*dT*d[5mC]*eT*eA*eG*eG*e[5mC]; antisense) [compound 144431]”, for which the “% INHIB” value is recorded as 26%.

As for “144432 (eT*eA*e[5mC]*e[5mC]*eG*dT*dG*dA*dA*dG*dA*d[5mC]*d[5mC]*dA*dG*e[5mC]*e[5mC]*eT*eT*e[5mC]; antisense) [compound 144432]”, the “% INHIB” value stood at 0%.

As to “144433 (eA*eT*eT*eA*eA*dG*dG*d[5mC]*dT*dT*d[5mC]*d[5mC]*dA*dG*dT*e[5mC]*e[5mC]*eT*eT*eG; antisense) [compound 144433]”, the “% INHIB” value is listed as 0%.

Take “144434 (e[5mC]*e[5mC]*e[5mC]*eT*eG*dG*dA*d[5mC]*d[5mC]*dT*d[5mC]*dT*dA*dT*dA*eT*eT*eG*eG*e[5mC]; antisense) [compound 144434]”: the “% INHIB” value is 0%.

For “144435 (eG*eA*eT*eA*e[5mC]*d[5mC]*dA*d[5mC]*dA*dA*dG*d[5mC]*dT*dA*dA*eA*e[5mC]*eT*e[5mC]*e[5mC]; antisense) [compound 144435]”, the “% INHIB” value amounted to 0%.

As for “144436 (eG*eA*eG*eG*eA*dG*dT*d[5mC]*d[5mC]*dA*d[5mC]*dT*dG*dT*dG*eA*eT*eG*eT*e[5mC]; antisense) [compound 144436]”, the “% INHIB” value worked out at 29%.

Consider “144437 (eG*eT*eA*e[5mC]*eT*dG*dG*dT*dT*dT*d[5mC]*d[5mC]*dA*dG*dG*e[5mC]*e[5mC]*eA*eG*e[5mC]; antisense) [compound 144437]”, for which the “% INHIB” value is listed as 32%.

Regarding “144438 (eG*e[5mC]*eT*eT*e[5mC]*dA*dT*d[5mC]*d[5mC]*dT*dT*dG*dT*d[5mC]*d[5mC]*eA*eT*e[5mC]*eT*eG; antisense) [compound 144438]”, the “% INHIB” value is 53%.

Consider “144439 (e[5mC]*eG*e[5mC]*eT*eG*dG*dA*dA*dG*dT*dA*d[5mC]*dT*dA*dT*e[5mC]*e[5mC]*eG*eG*e[5mC]; antisense) [compound 144439]”, for which the “% INHIB” value worked out at 52%.

As to “144440 (eA*eA*eT*eA*eT*d[5mC]*dA*d[5mC]*dA*dG*dG*dT*d[5mC]*dA*dG*eT*eT*eT*e[5mC]*eA; antisense) [compound 144440]”, the “% INHIB” value is listed as 40%.

On to “144441 (e[5mC]*eA*eT*eG*e[5mC]*d[5mC]*dA*d[5mC]*dA*dT*dT*dG*dT*dG*dT*e[5mC]*e[5mC]*e[5mC]*eT*eT; antisense) [compound 144441]”, for which the “% INHIB” value came out at 60%.

As to “144442 (e[5mC]*eG*e[5mC]*eT*eG*dT*dG*d[5mC]*dT*d[5mC]*dT*d[5mC]*dA*dG*dA*eG*eA*eG*e[5mC]*eA; antisense) [compound 144442]”, the “% INHIB” value was determined as 57%.

For “144443 (eG*eT*eA*eG*e[5mC]*dA*dT*dA*d[5mC]*dT*dG*d[5mC]*dA*dT*dA*eT*eA*e[5mC]*e[5mC]*e[5mC]; antisense) [compound 144443]”, the “% INHIB” value came to 51%.

As for “144444 (eG*eA*eT*eG*eA*dT*dT*d[5mC]*dA*dA*dA*dA*dT*dG*dA*e[5mC]*eG*e[5mC]*eT*eG; antisense) [compound 144444]”, the “% INHIB” value is given as 32%.

For “144445 (eG*eA*eT*eT*eT*dG*dA*dG*dA*dG*dA*dG*dG*dT*dA*eT*eA*eA*eG*eT; antisense) [compound 144445]”, the “% INHIB” value came to 18%.

With “144446 (eG*eA*eG*eA*eA*dT*dA*dA*d[5mC]*dT*dA*dT*dT*d[5mC]*dT*eG*eA*e[5mC]*eT*eG; antisense) [compound 144446]”, the “% INHIB” value turned out to be 28%.

Regarding “144447 (eG*eA*eG*e[5mC]*eT*dT*d[5mC]*dA*dT*dA*dT*dA*d[5mC]*dA*dT*eT*eG*eA*eT*e[5mC]; antisense) [compound 144447]”, the “% INHIB” value is listed as 70%.

Regarding “144448 (e[5mC]*e[5mC]*e[5mC]*eG*eT*d[5mC]*dA*dT*dG*d[5mC]*dT*dT*dA*dA*dG*eG*eA*eA*eG*eT) [compound 144448]”, the “% INHIB” value is given as 49%.

Regarding “144449 (eA*eT*eG*eT*eG*d[5mC]*d[5mC]*dT*dT*d[5mC]*dT*dA*d[5mC]*d[5mC]*dT*eT*eA*eA*eG*eG) [compound 144449]”, the “% INHIB” value is reported as 35%.

Take “AATATCACAGGTCAGTTTCA (antisense eA*eA*eT*eA*eT*d[5mC]*dA*d[5mC]*dA*dG*dG*dT*d[5mC]*dA*dG*eT*eT*eT*e[5mC]*eA) [ISIS 144440]”: the “% INHIB” value is “at least 30%”.

In the case of “AGTGTCCCAGTGATGATCAT (antisense eA*eG*eT*eG*eT*d[5mC]*d[5mC]*d[5mC]*dA*dG*dT*dG*dA*dT*dG*eA*eT*e[5mC]*eA*eT) [ISIS 144423]”, the “% INHIB” value is recorded as “at least 30%”.

For “ATGTGCCTTCTACCTTAAGG (antisense eA*eT*eG*eT*eG*d[5mC]*d[5mC]*dT*dT*d[5mC]*dT*dA*d[5mC]*d[5mC]*dT*eT*eA*eA*eG*eG) [ISIS 144449]”, the “% INHIB” value was “at least 30%”.

On to “CAGTGCCCAGCTAGGAGTCA (antisense e[5mC]*eA*eG*eT*eG*d[5mC]*d[5mC]*d[5mC]*dA*dG*d[5mC]*dT*dA*dG*dG*eA*eG*eT*e[5mC]*eA) [ISIS 144407]”, for which the “% INHIB” value is recorded as “at least 30%”.

Turning to “CATGCCACATTGTGTCCCTT (antisense e[5mC]*eA*eT*eG*e[5mC]*d[5mC]*dA*d[5mC]*dA*dT*dT*dG*dT*dG*dT*e[5mC]*e[5mC]*e[5mC]*eT*eT) [ISIS 144441]”, the “% INHIB” value is reported as “at least 30%”.

“CCAGTTGTGTGACCTTTAAC (antisense e[5mC]*e[5mC]*eA*eG*eT*dT*dG*dT*dG*dT*dG*dA*d[5mC]*d[5mC]*dT*eT*eT*eA*eA*e[5mC]) [ISIS 144410]”: the “% INHIB” value is recorded as “at least 30%”.

With “CCCGTCATGCTTAAGGAAGT (antisense e[5mC]*e[5mC]*e[5mC]*eG*eT*d[5mC]*dA*dT*dG*d[5mC]*dT*dT*dA*dA*dG*eG*eA*eA*eG*eT) [ISIS 144448]”, the “% INHIB” value is “at least 30%”.

Take “CCTGGAGGATAATGCTGCTG (antisense e[5mC]*e[5mC]*eT*eG*eG*dA*dG*dG*dA*dT*dA*dA*dT*dG*d[5mC]*eT*eG*e[5mC]*eT*eG) [ISIS 144422]”: the “% INHIB” value is “at least 30%”.

As for “CGCTGGAAGTACTATCCGGC (antisense e[5mC]*eG*e[5mC]*eT*eG*dG*dA*dA*dG*dT*dA*d[5mC]*dT*dA*dT*e[5mC]*e[5mC]*eG*eG*e[5mC]) [ISIS 144439]”, the “% INHIB” value is “at least 30%”.

As to “CGCTGTGCTCTCAGAGAGCA (antisense e[5mC]*eG*e[5mC]*eT*eG*dT*dG*d[5mC]*dT*d[5mC]*dT*d[5mC]*dA*dG*dA*eG*eA*eG*e[5mC]*eA) [ISIS 144442]”, the “% INHIB” value is “at least 30%”.

For the substance “GAGCTTCATATACATTGATC (antisense eG*eA*eG*e[5mC]*eT*dT*d[5mC]*dA*dT*dA*dT*dA*d[5mC]*dA*dT*eT*eG*eA*eT*e[5mC]) [ISIS 144447]”, the “% INHIB” value is listed as “at least 30%”.

With “GATTCCTCCATAGTAAGGCC (antisense eG*eA*eT*eT*e[5mC]*d[5mC]*dT*d[5mC]*d[5mC]*dA*dT*dA*dG*dT*dA*eA*eG*eG*e[5mC]*e[5mC]) [ISIS 144413]”, the “% INHIB” value is given as “at least 30%”.

With “GCGGTAGCCCACGCTGTCTT (antisense eG*e[5mC]*eG*eG*eT*dA*dG*d[5mC]*d[5mC]*d[5mC]*dA*d[5mC]*dG*d[5mC]*dT*eG*eT*e[5mC]*eT*eT) [ISIS 144412]”, the “% INHIB” value was “at least 30%”.

“GCTTCATCCTTGTCCATCTG (antisense eG*e[5mC]*eT*eT*e[5mC]*dA*dT*d[5mC]*d[5mC]*dT*dT*dG*dT*d[5mC]*d[5mC]*eA*eT*e[5mC]*eT*eG) [ISIS 144438]”: the “% INHIB” value is recorded as “at least 30%”.

As to “GTACTGGTTTCCAGGCCAGC (antisense eG*eT*eA*e[5mC]*eT*dG*dG*dT*dT*dT*d[5mC]*d[5mC]*dA*dG*dG*e[5mC]*e[5mC]*eA*eG*e[5mC]) [ISIS 144437]”, the “% INHIB” value is on record as “at least 30%”.
